According to ChEMBL document CHEMBL1201862, “PubChem BioAssay data set” (2004):
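96-well plates; 48 h exposure; 5 concentrations. Endpoints by linear interpolation between flanking doses. Not reached: highest tested concentration assigned. GI50 is the concentration that inhibits growth by half.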 Active and inactive are the calls of the source. Rule as the data show it: active = GI50 up to about 1.1 µM and inactive = higher.

Experiments:
Test in all cases: inhibition of tumour cell growth, NCI panel, 48 h
[1] = test system: HOP-18
[2] = test system: DMS-114
[3] = test system: DMS-273
[4] = test system: KM-20L2
[5] = test system: SNB-78
[6] = test system: XF498
[7] = test system: LXFL 529
[8] = test system: 786-0

Measured: GI50

O=C(NC(Cc1ccc(Br)cc1)C(=O)O)c1ccc(I)cc1 (stereo not drawn)
inactive: [1] > 100 µM | [2] 70.5 µM | [3] > 100 µM | [4] > 100 µM | [5] > 100 µM | [6] > 100 µM

C/C(=N\N)C(CN1CCOCC1)C(c1ccccc1)c1c(O)c2ccccc2oc1=O (stereo not drawn)
inactive: [7] > 100 µM | [2] > 100 µM | [3] > 100 µM | [4] > 100 µM | [8] > 95.1 µM | [5] > 100 µM

O=S(=O)(O)c1cc(S(=O)(=O)O)c2cc(/N=N/c3ccc(/N=N/c4ccc(/C=C/c5ccc(/N=[N+](/[O-])c6ccc(/C=C/c7ccc(/N=N/c8ccc(/N=N/c9ccc%10cc(S(=O)(=O)O)cc(S(=O)(=O)O)c%10c9)cc8)cc7S(=O)(=O)O)c(S(=O)(=O)O)c6)cc5S(=O)(=O)O)c(S(=O)(=O)O)c4)cc3)ccc2c1
inactive: [2] > 57.4 µM | [3] > 55.6 µM | [4] 58.9 µM | [5] 53.5 µM | [6] 45.2 µM

O=C1OC(C(O)CO)C(O)=C1O (stereo not drawn)
inactive: [8] > 100 µM
